Experimental data from US9932314B2, “Pyrazole compounds and their use as T-type calcium channel blockers” (IDORSIA PHARMACEUTICALS LTD, priority 2015, dated 2018).

target: T1, voltage-dependent T-type calcium channel subunit alpha-1G (Cav3.2) (Homo sapiens, UniProt O95180); test: FLIPR calcium flux assay, HEK293 cells recombinantly expressing Cav3.2; type: cell-based; conditions: Cav3.2-channel, Fluo-4-AM, 3 min incubation, stimulation with 10 mM CaCl2
T1 construct: expressed in transfected cells; host or cells: HEK293
T1 sequence (O95180 whole entry): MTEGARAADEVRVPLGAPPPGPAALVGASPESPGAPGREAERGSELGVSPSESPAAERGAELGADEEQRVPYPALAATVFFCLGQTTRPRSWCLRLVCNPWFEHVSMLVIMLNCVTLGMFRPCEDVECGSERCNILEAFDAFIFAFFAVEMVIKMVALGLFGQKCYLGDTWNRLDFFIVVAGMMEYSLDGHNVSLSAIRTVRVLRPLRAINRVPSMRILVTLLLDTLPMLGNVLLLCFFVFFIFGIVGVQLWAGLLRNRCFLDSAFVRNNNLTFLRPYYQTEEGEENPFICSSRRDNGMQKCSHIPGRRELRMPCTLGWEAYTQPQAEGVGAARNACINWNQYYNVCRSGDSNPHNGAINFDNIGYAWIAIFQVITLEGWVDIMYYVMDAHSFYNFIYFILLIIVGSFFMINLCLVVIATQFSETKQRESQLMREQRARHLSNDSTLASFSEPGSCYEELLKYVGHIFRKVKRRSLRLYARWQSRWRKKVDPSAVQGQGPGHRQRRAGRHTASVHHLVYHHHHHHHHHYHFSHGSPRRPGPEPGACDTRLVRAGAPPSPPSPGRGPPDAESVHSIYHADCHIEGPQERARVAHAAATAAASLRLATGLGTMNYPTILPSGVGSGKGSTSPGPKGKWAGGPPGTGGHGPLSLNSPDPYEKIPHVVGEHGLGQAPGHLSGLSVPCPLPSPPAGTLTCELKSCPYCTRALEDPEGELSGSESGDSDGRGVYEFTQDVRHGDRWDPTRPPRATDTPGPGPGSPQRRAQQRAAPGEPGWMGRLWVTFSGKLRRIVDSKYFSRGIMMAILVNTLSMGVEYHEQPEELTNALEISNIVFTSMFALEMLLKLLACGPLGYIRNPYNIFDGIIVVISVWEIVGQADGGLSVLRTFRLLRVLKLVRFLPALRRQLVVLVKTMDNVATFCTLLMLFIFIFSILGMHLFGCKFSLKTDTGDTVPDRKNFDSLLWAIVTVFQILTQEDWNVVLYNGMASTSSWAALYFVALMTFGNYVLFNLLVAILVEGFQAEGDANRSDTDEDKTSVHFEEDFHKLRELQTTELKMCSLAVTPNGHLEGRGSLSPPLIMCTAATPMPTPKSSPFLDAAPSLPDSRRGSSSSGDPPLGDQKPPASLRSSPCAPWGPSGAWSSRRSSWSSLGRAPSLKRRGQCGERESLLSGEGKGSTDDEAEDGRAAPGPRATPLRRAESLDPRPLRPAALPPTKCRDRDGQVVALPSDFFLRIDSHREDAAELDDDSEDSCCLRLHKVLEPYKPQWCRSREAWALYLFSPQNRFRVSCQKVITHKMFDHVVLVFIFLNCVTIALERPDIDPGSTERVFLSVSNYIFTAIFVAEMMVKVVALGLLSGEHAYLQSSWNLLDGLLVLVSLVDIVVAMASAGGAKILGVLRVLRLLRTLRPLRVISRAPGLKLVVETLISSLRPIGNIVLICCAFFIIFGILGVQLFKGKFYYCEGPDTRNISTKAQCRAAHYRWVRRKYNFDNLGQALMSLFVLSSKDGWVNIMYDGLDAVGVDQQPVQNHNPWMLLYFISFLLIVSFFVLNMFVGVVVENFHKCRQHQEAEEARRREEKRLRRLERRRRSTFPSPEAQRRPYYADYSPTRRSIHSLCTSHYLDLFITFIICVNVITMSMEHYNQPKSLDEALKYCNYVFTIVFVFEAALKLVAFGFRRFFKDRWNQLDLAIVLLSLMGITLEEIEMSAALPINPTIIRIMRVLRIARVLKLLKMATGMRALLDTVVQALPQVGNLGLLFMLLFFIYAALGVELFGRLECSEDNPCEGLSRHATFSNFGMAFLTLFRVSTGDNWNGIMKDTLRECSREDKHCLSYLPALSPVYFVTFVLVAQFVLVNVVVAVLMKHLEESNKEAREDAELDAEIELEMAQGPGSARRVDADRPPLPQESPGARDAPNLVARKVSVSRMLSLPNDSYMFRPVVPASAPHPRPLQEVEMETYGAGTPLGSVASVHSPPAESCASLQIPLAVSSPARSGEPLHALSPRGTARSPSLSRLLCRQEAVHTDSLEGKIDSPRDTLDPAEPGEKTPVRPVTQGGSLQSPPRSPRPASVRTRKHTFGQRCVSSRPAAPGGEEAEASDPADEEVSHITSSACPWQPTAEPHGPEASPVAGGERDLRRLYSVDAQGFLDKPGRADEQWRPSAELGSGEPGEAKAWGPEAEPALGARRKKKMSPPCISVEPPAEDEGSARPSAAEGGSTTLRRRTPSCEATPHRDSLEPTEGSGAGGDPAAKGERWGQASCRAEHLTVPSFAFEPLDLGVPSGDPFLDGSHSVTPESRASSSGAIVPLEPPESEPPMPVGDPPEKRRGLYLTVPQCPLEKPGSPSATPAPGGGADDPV
Procedure: In Vitro Methods—Measurement of Calcium Channel Flux by Means of FLIPR Assays.
HEK293 cells recombinantly expressing either voltage-dependent T-type calcium channel subunit […] (Cav3.2) or voltage-dependent L-type calcium channel subunit alpha-1C (Cav1.2) are assayed for calcium flux using the calcium indicator dye Fluo-4-AM (Molecular Devices) and FLIPR technology (Fluorometric Imaging Plate Reader, Molecular Devices) (Xie X, Van Deusen A L, Vitko I, Babu D A, Davies L A, Huynh N, Cheng H, Yang N, Barrett P Q, Perez-Reyes E. Validation of high throughput screening assays against three subtypes of Ca(v)3 T-type channels using molecular and pharmacologic approaches. Assay and Drug Development Technologies 2007, 5(2), 191-203). The HEK293 cells recombinantly expressing Cav3.2 are maintained in DMEM growth medium (Life Technologies) supplemented with 10% Fetal Bovine Serum (FBS), 100 U/ml penicilin (Life Technologies), 100 μg/ml streptomycin (Life Technologies) and 1 mg/ml G418 (Life Technologies). HEK293 cells recombinantly expressing Cav1.2 are maintained in DMEM growth medium (Life technologies) supplemented with 10% FBS, 0.1 mg/ml G418 (Life Technologies), 0.1 mg/ml hygromycin (Life Technologies) and 40 ug/ml zeocin (Life Technologies).
The seeded plates are incubated overnight at 37° C.
The cells are then washed three times with assay buffer (HBSS 1×; 0.375 g/L NaHCO3; 20 mM Hepes; 1% FBS; pH 7.4) and allowed to rest in 50 μl of wash buffer for 30 minutes.
Stock solutions of test compounds are prepared to a concentration of 10 mM in DMSO. For the Cav3.2 assay, serial dilutions of the compounds are prepared in TEAC buffer (100 mM tetraethylammonium chloride; 20 mM Hepes; 2.5 mM CaCl2; 5 mM KCl; 1 mM MgCl2; 1% FBS; pH 7.2), for the Cav1.2 assay serial dilutions are prepared in assay buffer. […] The compounds are incubated with the cells for 3 minutes and Ca2+ entry is stimulated by adding either CaCl2 to a final concentration of 10 mM (Cav3.2 assay) or by adding KCl to a final concentration of 20 mM (Cav1.2 assay). The kinetics of fluorescence increase are recorded for every well and the area under the fluorescence trace for every compound concentration is used to generate inhibition curves using non-linear regression sigmoidal concentration-response curve analysis with in-house software.

Compound	IC50 [nM]
N#Cc1ccc(Cn2ccc(NC(=O)Cc3ccc(N4CC(F)(F)C4)cc3)n2)cc1 [Example 50, N-[1-(4-Cyano-benzyl)-1H-pyrazol-3-yl]-2-[4-(3,3-difluoro-azetidin-1-yl)-phenyl]-acetamide]	11
Cc1cc(CC(=O)Nc2ccn(Cc3cc(C#N)c(F)cn3)n2)cnc1OCC(F)(F)F [Example 419, N-[1-(4-Cyano-5-fluoro-pyridin-2-ylmethyl)-1H-pyrazol-3-yl]-2-[5-methyl-6-(2,2,2-trifluoro-ethoxy)-pyridin-3-yl]-acetamide]	9430
COc1ccc(Cn2ccc(NC(=O)Cc3ccc(N4CC(F)C4)nc3)n2)cc1 [Example 163, 2-[6-(3-Fluoro-azetidin-1-yl)-pyridin-3-yl]-N-[1-(4-methoxy-benzyl)-1H-pyrazol-3-yl]-acetamide]	345
COCCN(C)c1ccc(CC(=O)Nc2ccn(Cc3ccc(OC)cc3)n2)cn1 [Example 183, N-[1-(4-Methoxy-benzyl)-1H-pyrazol-3-yl]-2-{6-[(2-methoxy-ethyl)-methyl-amino]-pyridin-3-yl}-acetamide]	530
Cc1nc2ccc(CC(=O)Nc3ccn(Cc4ccc(F)c(F)c4)n3)cc2[nH]1 [Example 135, N-[1-(3,4-Difluoro-benzyl)-1H-pyrazol-3-yl]-2-(2-methyl-3H-benzoimidazol-5-yl)-acetamide]	247
COC1(c2ccc(CC(=O)Nc3ccn(Cc4ccc(C#N)cn4)n3)cc2)CC1 [Example 384, N-[1-(5-Cyano-pyridin-2-ylmethyl)-1H-pyrazol-3-yl]-2-[4-(1-methoxy-cyclopropyl)-phenyl]-acetamide]	128
O=C(Cc1ccc(C2CC2)nc1)Nc1ccn(Cc2ccc(F)c(Cl)c2)n1 [Example 194, N-[1-(3-Chloro-4-fluoro-benzyl)-1H-pyrazol-3-yl]-2-(6-cyclopropyl-pyridin-3-yl)-acetamide]	61
Cn1ncc2ccc(CC(=O)Nc3ccn(Cc4ccc(F)c(F)c4)n3)cc21 [Example 224, N-[1-(3,4-Difluoro-benzyl)-1H-pyrazol-3-yl]-2-(1-methyl-1H-indazol-6-yl)-acetamide]	21
CCN(CC)c1ccc(CC(=O)Nc2ccn(Cc3ccc(C#N)cn3)n2)cn1 [Example 123, N-[1-(5-Cyano-pyridin-2-ylmethyl)-1H-pyrazol-3-yl]-2-(6-diethylamino-pyridin-3-yl)-acetamide]	1270
CN(CC1CC1)c1ccc(CC(=O)Nc2ccn(Cc3ccc(F)c(F)c3)n2)cn1 [Example 185, 2-[6-(Cyclopropylmethyl-methyl-amino)-pyridin-3-yl]-N-[1-(3,4-difluoro-benzyl)-1H-pyrazol-3-yl]-acetamide]	7.7
COc1ccc(Cn2ccc(NC(=O)Cc3ccc(OCC(F)(F)F)cc3)n2)cc1 [Example 45, N-[1-(4-Methoxy-benzyl)-1H-pyrazol-3-yl]-2-[4-(2,2,2-trifluoro-ethoxy)-phenyl]-acetamide]	33
COc1ccc(Cn2ccc(NC(=O)Cc3ccc(OC4CC4)cc3)n2)cc1 [Example 65, 2-(4-Cyclopropoxy-phenyl)-N-[1-(4-methoxy-benzyl)-1H-pyrazol-3-yl]-acetamide]	74
CC(C)c1ccc(CC(=O)Nc2ccn(Cc3ccc(F)c(Cl)n3)n2)cc1 [Example 211, N-[1-(6-Chloro-5-fluoro-pyridin-2-ylmethyl)-1H-pyrazol-3-yl]-2-(4-isopropyl-phenyl)-acetamide]	3.1
N#Cc1ccc(Cn2ccc(NC(=O)Cc3ccc(OCC4(F)COC4)cc3)n2)cc1 [Example 256, N-[1-(4-Cyano-benzyl)-1H-pyrazol-3-yl]-2-[4-(3-fluoro-oxetan-3-ylmethoxy)-phenyl]-acetamide]	251
CN(C)c1ccc(CC(=O)Nc2ccn(Cc3ccc(F)c(C(F)(F)F)c3)n2)cc1 [Example 23, 2-(4-Dimethylamino-phenyl)-N-[1-(4-fluoro-3-trifluoromethyl-benzyl)-1H-pyrazol-3-yl]-acetamide]	6.4
O=C(Cc1ccc(N2CC(F)(F)C2)cc1)Nc1ccn(Cc2ccc(F)c(F)c2)n1 [Example 52, 2-[4-(3,3-Difluoro-azetidin-1-yl)-phenyl]-N-[1-(3,4-difluoro-benzyl)-1H-pyrazol-3-yl]-acetamide]	2.6
N#Cc1ccc(Cn2ccc(NC(=O)Cc3ccc(N4CCC(F)(F)C4)nc3)n2)cc1 [Example 121, N-[1-(4-Cyano-benzyl)-1H-pyrazol-3-yl]-2-[6-(3,3-difluoro-pyrrolidin-1-yl)-pyridin-3-yl]-acetamide]	68
COc1ccc(Cn2ccc(NC(=O)Cc3ccc(N(C)C)nc3)n2)cc1 [Example 14, 2-(6-Dimethylamino-pyridin-3-yl)-N-[1-(4-methoxy-benzyl)-1H-pyrazol-3-yl]-acetamide]	650
CCN(C)c1ccc(CC(=O)Nc2ccn(Cc3ccc(OC)cc3)n2)cn1 [Example 174, 2-[6-(Ethyl-methyl-amino)-pyridin-3-yl]-N-[1-(4-methoxy-benzyl)-1H-pyrazol-3-yl]-acetamide]	319
CC(C)c1ccc(CC(=O)Nc2ccn(Cc3ccc(C(F)(F)F)cn3)n2)cc1 [Example 109, 2-(4-Isopropyl-phenyl)-N-[1-(5-trifluoromethyl-pyridin-2-ylmethyl)-1H-pyrazol-3-yl]-acetamide]	22
O=C(Cc1ccc(N2CCCC2)nc1)Nc1ccn(Cc2ccc(F)c(F)c2)n1 [Example 175, N-[1-(3,4-Difluoro-benzyl)-1H-pyrazol-3-yl]-2-(6-pyrrolidin-1-yl-pyridin-3-yl)-acetamide]	17
COCCN(C)c1ccc(CC(=O)Nc2ccn(Cc3ccc(C#N)cc3)n2)cc1 [Example 127, N-[1-(4-Cyano-benzyl)-1H-pyrazol-3-yl]-2-{4-[(2-methoxy-ethyl)-methyl-amino]-phenyl}-acetamide]	27
CC(C)c1ccc(CC(=O)Nc2ccn(Cc3cc(C4CC4)c(C#N)cn3)n2)cc1 [Example 170, N-[1-(5-Cyano-4-cyclopropyl-pyridin-2-ylmethyl)-1H-pyrazol-3-yl]-2-(4-isopropyl-phenyl)-acetamide]	191
CCc1nc(Cn2ccc(NC(=O)Cc3ccc(C(C)C)cc3)n2)ccc1C#N [Example 115, N-[1-(5-Cyano-6-ethyl-pyridin-2-ylmethyl)-1H-pyrazol-3-yl]-2-(4-isopropyl-phenyl)-acetamide]	57
Cc1cc(CC(=O)Nc2ccn(Cc3ccc(C#N)cn3)n2)cc(C)c1OCC(F)(F)F [Example 414, N-[1-(5-Cyano-pyridin-2-ylmethyl)-1H-pyrazol-3-yl]-2-[3,5-dimethyl-4-(2,2,2-trifluoro-ethoxy)-phenyl]-acetamide]	6.4
CC1(COc2ccc(CC(=O)Nc3ccn(Cc4cc(F)c(C#N)c(F)c4)n3)cc2)COC1 [Example 362, N-[1-(4-Cyano-3,5-difluoro-benzyl)-1H-pyrazol-3-yl]-2-[4-(3-methyl-oxetan-3-ylmethoxy)-phenyl]-acetamide]	117
N#Cc1cc(Cn2ccc(NC(=O)Cc3ccc(C4(C(F)(F)F)CC4)cc3)n2)ncc1F [Example 402, N-[1-(4-Cyano-5-fluoro-pyridin-2-ylmethyl)-1H-pyrazol-3-yl]-2-[4-(1-trifluoromethyl-cyclopropyl)-phenyl]-acetamide]	106
